According to US7544664B2, “Sequences facilitating penetration of a substance of interest” (priority 2003, dated 2009):
One block for each molecule: values may come before it. Where a SMILES comes first, the peptide text is derived from it. The star is where a group is joined. X1 = C[C@@H]1[C@H](O)[C@@H](C)/C=C/C=C/C=C/C=C/C=C/C=C/C=C/[C@H](O[C@@H]2O[C@H](C)[C@@H](O)[C@H](NC(=O)CCCCCN3C(=O)CC(*)C3=O)[C@@H]2O)C[C@@H]2O[C@](O)(C[C@@H](O)C[C@@H](O)[C@H](O)CC[C@@H](O)C[C@@H](O)CC(=O)O[C@H]1C)C[C@H](O)[C@H]2C(=O)O

Columns and labels:
[1] = tested on: HCT116 human colorectal carcinoma; experiment: In vivo anti-tumor activity of DPV7b-doxorubicin conjugate; parameters: species or system Nude mice; details: Table 15, Q2D3×3W
Procedure: Nude mice are injected with 10^7 HCT116 cells (HCT116 human colorectal carcinoma cell line) intradermically in the right flank. Treatments were performed on established solid tumors (tumors size is about 80 to 90 mm^3) at Day 3. Mice were randomized in different groups (equivalent tumors size), 6 mice by group.

[2] = tested on: OVCAR-3: human ovary carcinoma; experiment: cells; format: cell-based; details: Homo sapiens; OVCAR-3 ovary carcinoma; 1 h incubation + 72 h post-incubation
Procedure: OVCAR-3: human ovary carcinoma (origin: ATCC #HTB-161)
(§1) Viability assays were performed. Briefly, cells are seeded in 96-well plates and incubated with increasing concentrations of drugs for 1 hour then cells are rinsed and incubated with fresh medium without drugs for 72 hours. A WST-1 test (from Roche) was performed and IC50 values (drug concentration that inhibits 50% of cell viability) were estimated from sigmoidal regressions.
(§2) We tested the inhibition of in vitro cell proliferation of human carcinoma cells, and we calculated IC50 values=drug concentration that inhibits 50% of cell viability.

[3] = tested on: NCI-H1299: human non small cell lung carcinoma; experiment: cells; format: cell-based; details: Homo sapiens, NCI-H1299; H1299 NSCLC; 1 h incubation + 72 h post-incubation
Procedure: NCI-H1299: human non small cell lung carcinoma (NSCLC) (origin: ATCC #CRL-5803)
as §1, §2

[4] = tested on: HCT116 human colorectal carcinoma; experiment: In vivo anti-tumor activity, first experiment (DPV15-doxorubicin); parameters: species or system nude mice; details: Table 13, Q2D3×3W
Procedure: (§3) Mice: Athymic (nu/nu) nude mice, female, NMRI-nu (nu/nu)-Nude Tumor model: HCT116 human colorectal carcinoma (ATCC Number: CCl-247) Experiment has been performed on tumor-bearing mice. The HCT116 tumors have been established by intradermal injection of 100 μl of the cell suspension (10^7 cells/0.1 mL) on the right flank of the mouse. […] After complete dissolution a solution of 0.9% NaCl for injection (Cooper) 0.9% was added.

[5] = tested on: HCT116 human colorectal carcinoma; experiment: In vivo anti-tumor activity, second experiment (DPV15b-doxorubicin); parameters: species or system nude mice; details: Q2D3×3W
Procedure: as §3

[6] = Solubility in water / aqueous solutions
[7] = Stability in H2O+0.1% TFA overnight at room temperature; format: physicochemical; details: protected from light, Chl 0.1 mg/ml, DPV15-E-Chl 0.5 mg/ml in H2O+0.1% TFA
Procedure: After overnight incubation at room temperature and protected from light, both Chl (0.1 mg/ml in H2O+0.1% TFA) and DPV15-E-Chl (0.5 mg/ml in H2O+0.1% TFA) are degraded (50% degradation).

[8] = tested on: K562: human chronic myelogenous leukemia; experiment: Viability assay (WST-1); format: cell-based; details: Homo sapiens
Procedure: K562: human chronic myelogenous leukemia (CML) (origin: ATCC #CCL-243).
as §1, with “of drugs (i) for 1” for “of drugs for 1”, “drugs for 48 hours, or (ii) for 48 hours. A” for “drugs for 72 hours. A”
(§4) DPV15-E-Chl conjugate was compared to non-conjugated Chl and 5FUra for the inhibition of in vitro cell proliferation of human carcinoma and leukemia cells. We calculated IC50 values=drug concentration that inhibits 50% of cell viability.

[9] = tested on: HCT116: human colon carcinoma; experiment: cells; format: cell-based; details: Homo sapiens, HCT-116, 48 h, read-out: IC50 values
Procedure: HCT116: human colon carcinoma (origin: ATCC #CCL-247)
as §1, with “of drugs (i) for 1” for “of drugs for 1”, “drugs for 48 hours, or (ii) for 48 hours. A” for “drugs for 72 hours. A”
as §4

[10] = tested on: HT29: human colon carcinoma; experiment: cells; format: cell-based; details: Homo sapiens, HT-29, 48 h, read-out: IC50 values
Procedure: HT29: human colon carcinoma, low P-gp expression (origin: ATCC #HTB-38)
as §1, with “of drugs (i) for 1” for “of drugs for 1”, “drugs for 48 hours, or (ii) for 48 hours. A” for “drugs for 72 hours. A”
as §4

[11] = tested on: Candida albicans (ATCC 90028); experiment: Lethal murine candidiasis model; format: in vivo, mice; details: single i.v. 3 hours after inoculation
Procedure: Test substances (DPV15-AmB and AmB (Fungizone)) and vehicule control were administrated i.v. with doses ranging from 0.25 mg/kg to 2.5 mg/kg AmB equivalent to test animals 3 hours after the fungal inoculation. Mortality was recorded once daily for 8 days.

[12] = Single dose toxicity, intravenous injection; format: in vivo, mice
Procedure: The single dose toxicity of the DPV15-AmB conjugate was assessed by mortality and/or body weight loss after a single dose intravenous injection. Mice were treated with DPV15-AmB 2.57, 3.68, 5.52, 7.36, 9.2, 18.4 and 36.8 mg/kg with vehicle (NaCl/H2O 9/1 v/v). These different doses correspond to 0.7, 1, 1.5, 2, 2.5, 5 and 10 mg/kg of AMB respectively. The dose of 1 mg/kg corresponds to the MTD of AmB exposed in the literature (Tabosa Do Egito et al., In-vitro and In-vivo evaluation of a new amphothericin B emulsion-based delivery system. J Antimicrob Vhemother. 1996 September; 38(3):485-97).

IC50 [2]: 7.3 ± 4.2 µM | IC50 [3]: 0.62 ± 0.32 µM
SMILES: COc1cccc2c1C(=O)c1c(O)c3c(c(O)c1C2=O)C[C@@](O)(C(=O)CO)C[C@@H]3O[C@H]1C[C@H](N)[C@H](O)[C@H](C)O1 [Doxorubicin]
Tumor doubling time ([1]; 3.5 μmol/kg i.v.): 10.2 days | Tumor growth delay ([1]; 3.5 μmol/kg i.v.): 21.20 days | Tumor growth delay ([1]; 5 μmol/kg i.v.): 26.40 days | Tumor doubling time ([1]; 6.5 μmol/kg i.v.): 22.9 days | Tumor growth delay ([1]; 6.5 μmol/kg i.v.): 35.29 days | Tumor doubling time ([4]; 3.5 μmol/kg i.v.): 10.20 days | Tumor growth delay ([4]; 3.5 μmol/kg i.v.): 21.20 days | Tumor growth delay ([4]; 5 μmol/kg i.v.): 26.40 days | Tumor doubling time ([4]; 6.5 μmol/kg i.v.): 22.90 days | Tumor growth delay ([4]; 6.5 μmol/kg i.v.): 35.29 days | mice body weight loss ([5]; 7 μmol/kg i.v.): > 20% | Tumor growth delay ([5]; Table 14, 5 μmol/kg i.v.): 27.86 days | Tumor growth delay ([5]; Table 14, 6 μmol/kg i.v.): 29.98 days | Tumor doubling time ([5]; Table 14, 7 μmol/kg i.v.): 13.38 days | Tumor growth delay ([5]; Table 14, 7 μmol/kg i.v.): 35.16 days

SMILES: O=C(O)CCCc1ccc(N(CCCl)CCCl)cc1 [Chl, Chlorambucil]
Solubility in water / aqueous solutions [6]: not soluble | degradation after overnight incubation [7]: 50% | IC50 ([8]; 1 h incubation + 48 h): > 500 µM | IC50 ([8]; 48 h incubation): 250 ± 70 µM | IC50 [9]: 200 ± 70 µM | IC50 [10]: 250 ± 70 µM

IC50 [2]: 0.04 ± 0.02 µM | IC50 [3]: 0.23 ± 0.17 µM | Solubility in water / aqueous solutions [6]: not soluble
SMILES: CC(=O)O[C@H]1C(=O)[C@@]2(C)[C@H]([C@H](OC(=O)c3ccccc3)[C@]3(O)C[C@H](OC(=O)[C@H](O)[C@@H](NC(=O)c4ccccc4)c4ccccc4)C(C)=C1C3(C)C)[C@]1(OC(C)=O)CO[C@@H]1C[C@@H]2O [Paclitaxel (Hauser), Paclitaxel]

SMILES: CC(C)C[C@H](NC(=O)[C@H](CCCNC(=N)N)NC(=O)[C@H](CO)NC(=O)[C@H](CCC(N)=O)NC(=O)[C@H](CCCNC(=N)N)NC(=O)[C@H](CCC(=O)O)NC(=O)[C@H](CCCNC(=N)N)NC(=O)[C@H](CCCNC(=N)N)NC(=O)[C@@H](N)CC(C)C)C(=O)N[C@@H](CCCNC(=N)N)C(=O)N[C@@H](CCCNC(=N)N)C(=O)N[C@@H](CCC(=O)O)C(=O)N[C@@H](CCCNC(=N)N)C(=O)N[C@@H](CCC(N)=O)C(=O)N[C@@H](CO)C(=O)N[C@@H](CCCNC(=N)N)C(=O)N[C@@H](CSC1CC(=O)N(CCCCCC(=O)N[C@@H]2[C@H](O)[C@H](O[C@H]3/C=C/C=C/C=C/C=C/C=C/C=C/C=C/[C@H](C)[C@@H](O)[C@@H](C)[C@H](C)OC(=O)C[C@H](O)C[C@H](O)CC[C@@H](O)[C@H](O)C[C@H](O)C[C@]4(O)C[C@H](O)[C@@H](C(=O)O)[C@H](C3)O4)O[C@H](C)[C@H]2O)C1=O)C(=O)O (stereo partly drawn) [DPV15-AmB] (H-LRRERQSRLRRERQSRC(X1)-OH)
survival on day 8 ([11]; 0.5 mg/kg AmB equivalent): 50% | survival on day 8 ([11]; 1 mg/kg AmB equivalent): 50% | mortality ([12]; 18.4 mg/kg, 24 hours after the injection): 1 mouse was found dead | loss of initial body weight ([12]; 18.4 mg/kg, two surviving mice, 24 hours after the injection): about 12% | Acute lethal toxicity ([12]; 36.8 mg/kg (10 mg/kg of AMB), single i.v.): observed | effect on the body weight at Day 28 ([12]; 2.57, 3.68, 5.52, 7.36 and 9.2 mg/kg, single i.v.): no effect | MTD at 28 day ([12]; mouse, in vivo, iv, single i.v., conjugate dose, read-out: maximal tolerated dose): 9.2 to 18.4 mg/kg
